Read-outs that look alike come from different tables or passages of the source.
Assays:
[1] = Cytotoxicity assay (CCK-8), HEK293T; format: cell-based; details: human, HEK293T cells
Procedure: Cytotoxicity of EDT and tiamulin was studied against human hepatocellular carcinoma cells (HepG2) and human embryonic kidney 293T (HEK293T) cells following a protocol as published in our earlier reports[41],[42]. Cells were counted and inoculated into 96-well plates with approximately10^5 cells density for incubating 24 h at 37 °C. […] The same procedure was repeated three times. The percentages of cell viability were calculated by the formula: Cell viability (%) = [Asample ‒ Anegative]/[Apositve ‒ Anegative] × 100%.

CYP2D6 = test: CYP450 inhibition in liver microsomes, probe substrate; format: biochemical; details: CYP2D6, rat liver microsomes
Procedure: (§1) Inhibition effects of EDT on cytochrome P450 were evaluated with rat liver microsomes in vitro[43]. Briefly, 12.8 mg EDT was dissolved in methanol and stored at 4 °C as reserve solution. A variety of specific probe substrate (1 μL), EDT solution (1 μL), incubation mixture (193 μL) in which contained glucose-6-phosphate, glucose-6-phosphate dehydrogenase, potassium phosphate buffer, magnesium chloride buffer and PBS buffer, were added into 5 μL liver microsomes to start the reaction at 37 °C. The final concentration of EDT in each group was 0.1, 1, 5, 10, 50, 100 μM. After 30 min, the reaction was terminated by adding the same volume of pre-cooled acetonitrile into the incubation system. After centrifugation for 10 min (8000×g at 4 °C), 10 μL supernatant was removed to analyze the metabolites of specific probe substrate by HPLC. The effects of EDT on CYP450 subtypes were evaluated using formula as follow: (1 − Cn/C0) × 100%, where Cn was substrate metabolite of different concentration of EDT, and C0 was metabolite of blank group.

CYP2A6 = test: as above; format: biochemical; details: CYP2A6, rat liver microsomes
Procedure: as §1

CYP2C9 = test: as above; format: biochemical; details: CYP2C9, rat liver microsomes
Procedure: as §1

CYP2E1 = biological target: T1, CYP2E1 (Rattus norvegicus, UniProt P05182); test: as above; format: biochemical; details: 30 min
T1 construct: from tissue; host or cells: rat liver microsomes
T1 sequence (P05182 whole entry): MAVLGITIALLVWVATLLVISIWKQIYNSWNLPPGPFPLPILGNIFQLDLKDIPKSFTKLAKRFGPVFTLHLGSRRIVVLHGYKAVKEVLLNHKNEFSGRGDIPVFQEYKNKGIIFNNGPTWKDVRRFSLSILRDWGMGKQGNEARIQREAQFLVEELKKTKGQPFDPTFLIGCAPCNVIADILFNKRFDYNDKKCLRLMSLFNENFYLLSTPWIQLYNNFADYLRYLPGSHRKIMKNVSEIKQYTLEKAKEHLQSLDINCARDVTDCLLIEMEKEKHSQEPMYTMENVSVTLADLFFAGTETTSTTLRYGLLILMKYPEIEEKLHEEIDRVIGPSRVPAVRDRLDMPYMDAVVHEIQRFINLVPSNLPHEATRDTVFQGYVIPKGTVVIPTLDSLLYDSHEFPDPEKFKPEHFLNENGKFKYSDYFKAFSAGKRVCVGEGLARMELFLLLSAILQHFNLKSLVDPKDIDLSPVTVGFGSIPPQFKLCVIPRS
Procedure: as §1

CYP3A4 = test: as above; format: biochemical; details: CYP3A4, rat liver microsomes
Procedure: as §1

female Wistar rats = test: Acute oral toxicity test (OECD423); format: in vivo; details: for Absolute organ weight, Heart / Absolute organ weight, Kidneys / Absolute organ weight, Liver / Absolute organ weight, Lungs / Absolute organ weight, Ovaries / Absolute organ weight, Spleen / Absolute organ weight, Uterus: 2000 mg/kg oral single dose; for Relative organ weight, Kidneys: organ/b.w. × 100
Procedure: Adult specific pathogen free (SPF) female Wistar rats (4–6 weeks old) were purchased from Lanzhou Veterinary Research Institute, Chinese Academy of Agricultural Sciences. Animals were kept in clean stainless steel cages (3 rats per cage), free access to food and water and maintained under the 23 °C conditions with a constant 12 h light–dark cycle. Animals were acclimatized for at least 7 days before the experiment. […] The animal study was carried out in compliance with the ARRIVE guidelines.
Acute toxicity tests of EDT were performed according to OECD423 bulletin[23]. This method can measure drug roughly LD50 with fewer experimental animals. […] Six animals were randomly separated into one treatment group (n = 3) and control group (n = 3). Rats in treatment group were orally administered with a single dose of 2000 mg/kg of EDT dissolved in vehicle (corn oil: DMSO = 4:1) in a volume of 10 mL/kg body weight (b.w.) by gavage. Animals in the control group only received 10 mL/kg vehicle. […] After first round treatment, observations were focused on mortality, behavioural symptoms and changes in skin, eyes and fur. Individual body weight was recorded at the starting of protocol and at the end of protocol. […] On the 14th day, all the surviving animals were euthanized with ketamine hydrochloride 70 mg/kg (i.p.) and their hearts, livers, spleens, lungs, kidneys, uterus and ovaries were individually observed for overt pathology and removed for relative weight calculation (organ/b.w. × 100).

[2] = test system: Salmonella Typhimurium TA100; test: Ames test, TA100; format: cell-based
Procedure: (§2) Before the test, Salmonella Typhimurium (S. Typhimurium) TA97a, TA98, TA100, TA102, TA1535 and Escherichia coli WP2uvrA pKM101 (pKM101) were first checked for their genetic integrity, including biotin dependence, rfa marker (crystal violet), biotin, histidine dependence and presence of the plasmid pKM101 (ampicillin resistance) or pAQ1 (tetracycline resistance). […] The maximum concentration of EDT was also screened using a preliminary experiment.
(§3) DMSO (0.1 mL) was directly incorporated into 1.9 mL melted top agar as the vehicle control. […] Each strain (0.1 mL, 6–7 log10 CFU/mL) was added into 2 mL of top agar in which comprised 0.5 mL S9 (10%), serial concentrations of EDT (2000, 400, 80, 16 and 3.2 μg/plate), DMSO or control chemicals for testing with the S9. For testing without S9, 0.5 mL phosphate buffer saline (PBS, pH 7.4) replaced the S9 mix. Then, the obtained top agar was melted, poured onto the surface of […] and swirled to distribute the top agar to all surfaces of medium, followed by incubation at 37 °C for 48 h. The resultant colonies were counted manually as the number of revertant colonies per plate. The experiments were performed in triplicate and the results were expressed as the average ± SD.

[3] = test system: Salmonella Typhimurium TA1535
Procedure: as §2, §3

C=CC1(C)CC(OC(=O)CSc2nc(C)c(C(=O)OCC)c(C)n2)C2(C)C(C)CCC3(CCC(=O)C32)C(C)C1O (stereo not shown) [EDT, 14-O-[(5-ethoxycarbonyl-4,6-dimethylpyrimidine-2-yl)thioacetyl] mutilin]
CC50 at 6 h ([1]; 200 μM converted to μg/mL): > 115 µg/mL | CC50 at 6 h ([1]; deduced from Fig. 5): > 200 µM | IC50 at 30 min (CYP2D6): > 100 µM | IC50 at 30 min (CYP2A6): > 100 µM | IC50 at 30 min (CYP2C9): > 100 µM | IC50 (CYP2E1): 88.5 µM | IC50 at 30 min (CYP3A4): 9.25 µM | LD50 (female Wistar rats; female Wistar rats, single oral dose, OECD Guidelines 423): more than 2000 mg/kg body weight | Absolute organ weight, Heart (female Wistar rats; first round treatment, day 14): 0.71 ± 0.06 g | Absolute organ weight, Kidneys (female Wistar rats; first round treatment, day 14): 1.11 ± 0.01 g | Absolute organ weight, Liver (female Wistar rats; first round treatment, day 14): 9.66 ± 0.17 g | Absolute organ weight, Lungs (female Wistar rats; first round treatment, day 14): 1.38 ± 0.03 g | Absolute organ weight, Ovaries (female Wistar rats; first round treatment, day 14): 0.06 ± 0.00 g | Absolute organ weight, Spleen (female Wistar rats; first round treatment, day 14): 0.70 ± 0.03 g | Absolute organ weight, Uterus (female Wistar rats; first round treatment, day 14): 0.45 ± 0.02 g | Relative organ weight, Kidneys (female Wistar rats; first round treatment): 0.52 ± 0.01% | Relative organ weight, Ovaries (female Wistar rats; rat, in vivo): 0.03 ± 0.00% | Relative organ weight, Spleen (female Wistar rats; rat, in vivo): 0.33 ± 0.01% | mortality (female Wistar rats; rat, in vivo, po, 2000 mg/kg): no mortality | Absolute organ weight, Heart (female Wistar rats; second round treatment, day 14): 0.75 ± 0.03 g | Absolute organ weight, Kidneys (female Wistar rats; second round treatment, day 14): 1.11 ± 0.03 g | Absolute organ weight, Liver (female Wistar rats; second round treatment, day 14): 9.69 ± 0.06 g | Absolute organ weight, Lungs (female Wistar rats; second round treatment, day 14): 1.40 ± 0.05 g | Absolute organ weight, Ovaries (female Wistar rats; second round treatment, day 14): 0.06 ± 0.00 g | Absolute organ weight, Spleen (female Wistar rats; second round treatment, day 14): 0.71 ± 0.03 g | Absolute organ weight, Uterus (female Wistar rats; second round treatment, day 14): 0.43 ± 0.03 g | Relative organ weight, Kidneys (female Wistar rats; second round treatment): 0.52 ± 0.01% | body weight compared to the control group (female Wistar rats; single oral 2000 mg/kg, 14 days): did not produce alterations in body weight | macroscopic necropsy examination (female Wistar rats; single oral 2000 mg/kg, day 14): no gross pathological lesions | number of revertant colonies per plate ([2]; TA100, 3.2 μg/plate, +S9): 119.67 ± 7.33 | number of revertant colonies per plate ([2]; TA100, 3.2 μg/plate, −S9): 109.00 ± 8.00 | number of revertant colonies per plate ([2]; TA100, 16 μg/plate, +S9): 103.67 ± 9.33 | number of revertant colonies per plate ([2]; TA100, 16 μg/plate, −S9): 101.00 ± 9.00 | number of revertant colonies per plate ([2]; TA100, 80 μg/plate, +S9): 118.67 ± 14.33 | number of revertant colonies per plate ([2]; TA100, 80 μg/plate, −S9): 105.33 ± 13.67 | number of revertant colonies per plate ([2]; TA100, 400 μg/plate, +S9): 134.33 ± 12.67 | number of revertant colonies per plate ([2]; TA100, 400 μg/plate, −S9): 129.67 ± 15.33 | number of revertant colonies per plate ([2]; TA100, 2000 μg/plate, +S9): 137.00 ± 14.00 | number of revertant colonies per plate ([2]; TA100, 2000 μg/plate, −S9): 122.67 ± 11.33 | number of revertant colonies per plate ([3]; TA1535, 3.2 μg/plate, +S9): 21.00 ± 4.00 | number of revertant colonies per plate ([3]; TA1535, 3.2 μg/plate, −S9): 19.67 ± 1.33 | number of revertant colonies per plate ([3]; TA1535, 16 μg/plate, +S9): 27.00 ± 2.00 | number of revertant colonies per plate ([3]; TA1535, 16 μg/plate, −S9): 23.33 ± 1.67 | number of revertant colonies per plate ([3]; TA1535, 80 μg/plate, +S9): 25.00 ± 4.00 | number of revertant colonies per plate ([3]; TA1535, 80 μg/plate, −S9): 23.33 ± 2.67 | number of revertant colonies per plate ([3]; TA1535, 400 μg/plate, +S9): 26.00 ± 3.00 | number of revertant colonies per plate ([3]; TA1535, 400 μg/plate, −S9): 23.33 ± 2.67 | number of revertant colonies per plate ([3]; TA1535, 2000 μg/plate, +S9): 19.33 ± 3.67 | number of revertant colonies per plate ([3]; TA1535, 2000 μg/plate, −S9): 17.67 ± 2.33

Reference: PMC10502144, “Anti-methicillin-resistant Staphylococcus aureus activity and safety evaluation of 14-O-[(5-ethoxycarbonyl-4,6-dimethylpyrimidine-2-yl) thioacetyl] mutilin (EDT)” (Scientific Reports, 2023)
